In general, EC50 refers to the concentration giving half of the maximal effect. Lower therefore signals higher potency in that assay.

Where a name gives a salt, the structure may show the parent alone.

The test system of the experiment is RSV Long strain. Kind of experiment: Viral cytopathic effect (CPE) assay, anti-RSV activity. Format: cell-based, Respiratory Syncytial Virus. The following applies: human respiratory syncytial virus, 144 h, RSV Long strain (ATCC); cell viability after 6 days, Cell Counting kit-8. In a few lines:
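EC50 was derived from CCK-8 viability at 450/630 nm measured 6 days post-infection. Infection used enough RSV Long strain for approximately 80–90% cytopathic effect, in the presence of half-log serially diluted compound. Cells were plated the day before at 6×10^3 per well in DMEM/10% FBS.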
A general note: Cytopathic effects are the visible damage that an infection or toxin causes in cultured cells.
`CO[C@@H]1CNC[C@H]1Nc1cc(N2CCS(=O)(=O)c3ccccc3C2)nc2ccc(C)cc12` (relative stereo) [Example 8-4, 2-(1,1-Dioxido-2,3-dihydro-1,4-benzothiazepin-4(5H)-yl)-N-[trans-4-methoxypyrrolidin-3-yl]-6-methylquinolin-4-amine] gave an EC50 of 0.064 µM.
`Cc1ccc2nc(N3CCC(F)(F)c4ccccc4C3)nc(NCC3(CN)COC3)c2c1` [Example 114-3, N-{[3-(Aminomethyl)oxetan-3-yl]methyl}-2-(5,5-difluoro-1,3,4,5-tetrahydro-2H-2-benzazepin-2-yl)-6-methylquinazolin-4-amine] came in with an EC50 of 0.004 µM.
The result for `Cc1ccc2nc(N3CCS(=O)(=O)c4ccccc4C3)nc(NCC3(N)CCC3)c2c1` [Example 61-2, N-[(1-Aminocyclobutyl)methyl]-2-(1,1-dioxido-2,3-dihydro-1,4-benzothiazepin-4(5H)-yl)-6-methylquinazolin-4-amine] reads 0.097 µM.
In turn, `CC(=O)Nc1nc(N2CCS(=O)(=O)c3ccccc3C2)nc2ccc(C)cc12` [Example 63-4, N-[2-(1,1-Dioxido-2,3-dihydro-1,4-benzothiazepin-4(5H)-yl)-6-methylquinazolin-4-yl]acetamide] yielded a half-maximal effective concentration (EC50) of 0.797 µM.
Regarding `NCCCNc1cc(N2CCS(=O)(=O)c3ccccc3C2)nc2ccc(Oc3ccccn3)cc12` [Example 31, N-[2-(1,1-Dioxido-2,3-dihydro-1,4-benzothiazepin-4(5H)-yl)-6-(pyridin-2-yloxy)quinolin-4-yl]propane-1,3-diamine], a half-maximal effect (EC50) was put at 0.702 µM.
For `Cc1ccc2nc(N3CCS(=O)(=O)c4ccccc4C3)cc(NC3CCN(C4COC4)C3)c2c1` (stereo not drawn) [Example 44-1, 2-(1,1-Dioxido-2,3-dihydro-1,4-benzothiazepin-4(5H)-yl)-6-methyl-N-[1-(oxetan-3-yl)pyrrolidin-3-yl]quinolin-4-amine], a half-maximal response (EC50) required 0.084 µM.
In the case of `Cc1ccc2nc(N3CCS(=O)(=O)c4ccccc4C3)cc(NCC3(CN)CS(=O)(=O)C3)c2c1` [Example 6-2, N-{[3-(Aminomethyl)-1,1-dioxidothietan-3-yl]methyl}-2-(1,1-dioxido-2,3-dihydro-1,4-benzothiazepin-4(5H)-yl)-6-methylquinolin-4-amine], the EC50 turned out to be 0.908 µM.
In turn, `NCCNS(=O)(=O)c1cc(N2CCCc3ccccc3C2)nc2ccccc12` [Example 132, N-(2-Aminoethyl)-2-(1,3,4,5-tetrahydro-2H-2-benzazepin-2-yl)quinoline-4-sulfonamide trifluoroacetate] came in with an EC50 of 7.81 µM.
`COc1ccc2c(c1)S(=O)(=O)CCN(c1cc(NCC3(N)COC3)c3cc(Cl)ccc3n1)C2` [Example 3-13, N-[(3-Aminooxetan-3-yl)methyl]-6-chloro-2-(8-methoxy-1,1-dioxido-2,3-dihydro-1,4-benzothiazepin-4(5H)-yl)quinolin-4-amine]: a half-maximal response (EC50) required 0.099 µM.
`Cc1ccc2nc(N3CCS(=O)(=O)c4ccccc4C3)cc(N[C@@H]3CCCC[C@H]3N)c2c1` (relative stereo) [Example 3-15, trans-N-[2-(1,1-Dioxido-2,3-dihydro-1,4-benzothiazepin-4(5H)-yl)-6-methylquinolin-4-yl]cyclohexane-1,2-diamine] gave an EC50 of 0.482 µM.
In turn, `NCCNc1cc(N2CCS(=O)(=O)c3ccccc3C2)nc2ccc(F)cc12` [Example 9-9, N-[2-(1,1-Dioxido-2,3-dihydro-1,4-benzothiazepin-4(5H)-yl)-6-fluoroquinolin-4-yl]ethane-1,2-diamine] gave an EC50 of 0.157 µM.
The result for `Cc1ccc2nc(N3CCSc4ccccc4C3)cc(NCC3(N)COC3)c2c1` [Example 4-3, N-[(3-Aminooxetan-3-yl)methyl]-2-(2,3-dihydro-1,4-benzothiazepin-4(5 H)-yl)-6-methylquinolin-4-amine] reads 0.026 µM; that for `Cc1ccc2nc(N3CCC(F)(F)c4ccccc4C3)cc(NCC3(N)COC3)c2c1` [Example 110-1, N-[(3-Aminooxetan-3-yl)methyl]-2-(5,5-difluoro-1,3,4,5-tetrahydro-2H-2-benzazepin-2-yl)-6-methylquinolin-4-amine], 0.017 µM.
On to `Cc1ccc2nc(N3CCS(=O)(=O)c4ccccc4C3)cc(NC(=O)C(C)(C)N)c2c1` [Example 40-2, N-[2-(1,1-Dioxido-2,3-dihydro-1,4-benzothiazepin-4(5H)-yl)-6-methylquinolin-4-yl]-2-methylalaninamide], for which the response was half-maximal at 4.66 µM (EC50).
Turning to `Cc1ccc2nc(N3CCS(=O)(=O)c4ccccc4C3)cc(NC3=NCCN3)c2c1` [Example 7, N-(4,5-Dihydro-1H-imidazol-2-yl)-2-(1,1-dioxido-2,3-dihydro-1,4-benzothiazepin-4(5H)-yl)-6-methylquinolin-4-amine], a half-maximal effect (EC50) was put at 1.42 µM.
As to `Cc1ccc2nc(N3CCC(C)(O)c4ccccc4C3)nc(NCC3(N)COC3)c2c1` (stereo not drawn) [Example 115, 2-(4-{[(3-Aminooxetan-3-yl)methyl]amino}-6-methylquinazolin-2-yl)-5-methyl-2,3,4,5-tetrahydro-1H-2-benzazepin-5-ol], the EC50 came out at 0.01 µM.
Molecule `Cc1ccc2nc(N3CCS(=O)(=O)c4ccccc4C3)cc(N3CC[C@H](O)C3)c2c1` [Example 15-3, (3S)-1-[2-(1,1-Dioxido-2,3-dihydro-1,4-benzothiazepin-4(5H)-yl)-6-methylquinolin-4-yl]pyrrolidin-3-ol] displayed an EC50 of 2.7 µM.
Consider `Cc1ccc2nc(N3CCS(=O)(=O)c4ccccc4C3)cc(NC(C)CN)c2c1` (stereo not drawn) [Example 9-18, N^˜2^˜-[2-(1,1-Dioxido-2,3-dihydro-1,4-benzothiazepin-4(5H)-yl)-6-methylquinolin-4-yl]propane-1,2-diamine], for which it took 0.01 µM to reach a half-maximal effect (EC50).
`Cc1ccc2nc(N3CCS(=O)(=O)c4ccccc4C3)cc(NCCN3CCCCC3)c2c1` [Example 9-6, 2-(1,1-Dioxido-2,3-dihydro-1,4-benzothiazepin-4(5H)-yl)-6-methyl-N-[2-(piperidin-1-yl)ethyl]quinolin-4-amine] came in with an EC50 of 0.275 µM.
In the case of `Cc1ccc2nc(N3Cc4ccccc4S(=O)(=O)C(C)C3)cc(NCCN)c2c1` (stereo not drawn) [Example 69-1, N-[6-Methyl-2-(2-methyl-1,1-dioxido-2,3-dihydro-1,4-benzothiazepin-4(5H)-yl)quinolin-4-yl]ethane-1,2-diamine] it was 0.007 µM; in that of `Cc1ccc2nc(N3CCS(=O)(=O)c4ccccc4C3)cc(NC(=O)CCN)c2c1` [Example 42-2, N-[2-(1,1-Dioxido-2,3-dihydro-1,4-benzothiazepin-4(5H)-yl)-6-methylquinolin-4-yl]-beta-alaninamide], 0.037 µM.
Molecule `Cc1ccc2nc(N3CCS(=O)(=O)c4ccccc4C3)nc(NC3CNC3)c2c1` [Example 93-2, N-(Azetidin-3-yl)-6-methyl-2-(1,1-dioxido-2,3-dihydro-1,4-benzothiazepin-4(5H)-yl)quinazolin-4-amine] yielded an EC50 of 0.009 µM.
For the molecule `CS(=O)(=O)c1ccc2c(c1)CCCN(c1cc(NCCN)c3ccccc3n1)C2` [Example 120-1, N-{2-[7-(Methylsulfonyl)-1,3,4,5-tetrahydro-2H-2-benzazepin-2-yl]quinolin-4-yl}ethane-1,2-diamine], the EC50 amounted to 2.19 µM.
As for `Cc1ccc2nc(N3CCS(=O)(=O)c4ccccc4C3)cc(NC(=O)Nc3ccccc3)c2c1` [Example 50-1, 1-[2-(1,1-Dioxido-2,3-dihydro-1,4-benzothiazepin-4(5H)-yl)-6-methylquinolin-4-yl]-3-phenylurea], the EC50 amounted to 0.931 µM.
In turn, `N#Cc1ccc2nc(N3CCS(=O)(=O)c4ccccc4C3)cc(NCCCN)c2c1` [Example 52, 4-[(3-Aminopropyl)amino]-2-(1,1-dioxido-2,3-dihydro-1,4-benzothiazepin-4(5H)-yl)quinoline-6-carbonitrile] registered an EC50 of 0.419 µM.
In the case of `NCCCNc1cc(N2CCS(=O)(=O)c3ccccc3C2)nc2ccc(C3CC3)cc12` [Example 51, N-[6-Cyclopropyl-2-(1,1-dioxido-2,3-dihydro-1,4-benzothiazepin-4(5H)-yl)quinolin-4-yl]propane-1,3-diamine], the EC50 was determined as 0.056 µM.
`Cc1ccc2c(c1)S(=O)(=O)CCN(c1cc(NCC3(CN)COC3)c3ccccc3n1)C2` [Example 3-7] came in with an EC50 of 0.009 µM.
`NCCCNc1cc(N2CCS(=O)(=O)c3ccccc3C2)nc2ccc(C(N)=O)cc12` [Example 81, 4-[(3-Aminopropyl)amino]-2-(1,1-dioxido-2,3-dihydro-1,4-benzothiazepin-4(5H)-yl)quinoline-6-carboxamide] registered an EC50 of 0.353 µM.
Molecule `NCC1(CNc2nc(N3CCS(=O)(=O)c4ccccc4C3)nc3ccc(C(=O)O)cc23)COC1` [Example 108-2, 4-({[3-(Aminomethyl)oxetan-3-yl]methyl}amino)-2-(1,1-dioxido-2,3-dihydro-1,4-benzothiazepin-4(5H)-yl)quinazoline-6-carboxylic acid] yielded an EC50 of 2.47 µM.
The molecule `CC(=O)NCC1(CNc2cc(N3CCS(=O)(=O)c4ccccc4C3)nc3ccc(C)cc23)COC1` [Example 63-2, N-{[3-({[2-(1,1-D ioxido-2,3-dihydro-1,4-benzothiazepin-4(5H)-yl)-6-methylquinolin-4-yl]amino}methyl)oxetan-3-yl]methyl}acetamide] yielded an EC50 of 2.02 µM.
For `NC1=NCC(CNc2cc(N3CCCc4ccccc4C3)nc3ccc(Cl)cc23)O1` (stereo not drawn) [Example 126-2, N-[(2-Amino-4,5-dihydro-1,3-oxazol-5-yl)methyl]-6-chloro-2-(1,3,4,5-tetrahydro-2H-2-benzazepin-2-yl)quinolin-4-amine], the EC50 amounted to 0.638 µM.
In turn, `NCCNc1cc(N2CCS(=O)(=O)c3ccccc3C2)nc2ccc(N)cc12` [Example 85, N^˜4^˜-(2-Aminoethyl)-2-(1,1-dioxido-2,3-dihydro-1,4-benzothiazepin-4(5H)-yl)quinoline-4,6-diamine] registered an EC50 of 0.008 µM.
The result for `CNCCNc1cc(N2CCCc3ccccc3C2)nc2ccccc12` [Example 118-14, N-Methyl-N′-[2-(1,3,4,5-tetrahydro-2H-2-benzazepin-2-yl)quinolin-4-yl]ethane-1,2-diamine] reads 0.616 µM.

For the origin of these results see patent publication US8871756B2 (Hoffmann-La Roche Inc., priority 2011, dated 2014).
